Results from patent US20150045410A1, “METHOD OF REGULATING CFTR EXPRESSION AND PROCESSING” (University of Iowa Research Foundation, priority 2012, published 2015).

Molecular target: T1, CFTR-ΔF508 (Homo sapiens, UniProt P13569, DEL508-508)
T1 construct: expressed in transfected cells
Assay: Cell surface ELISA (anti-HA) in HeLa cells stably expressing HA-tagged CFTR-ΔF508
Assay type: cell-based
Details: HeLa-ΔF508-CFTR-HA cells treated daily with drugs, 72 hr post-treatment, vs DMSO (FIG. 28, 29)

T1 sequence (P13569 with tags, fused parts or gaps DEL508-508): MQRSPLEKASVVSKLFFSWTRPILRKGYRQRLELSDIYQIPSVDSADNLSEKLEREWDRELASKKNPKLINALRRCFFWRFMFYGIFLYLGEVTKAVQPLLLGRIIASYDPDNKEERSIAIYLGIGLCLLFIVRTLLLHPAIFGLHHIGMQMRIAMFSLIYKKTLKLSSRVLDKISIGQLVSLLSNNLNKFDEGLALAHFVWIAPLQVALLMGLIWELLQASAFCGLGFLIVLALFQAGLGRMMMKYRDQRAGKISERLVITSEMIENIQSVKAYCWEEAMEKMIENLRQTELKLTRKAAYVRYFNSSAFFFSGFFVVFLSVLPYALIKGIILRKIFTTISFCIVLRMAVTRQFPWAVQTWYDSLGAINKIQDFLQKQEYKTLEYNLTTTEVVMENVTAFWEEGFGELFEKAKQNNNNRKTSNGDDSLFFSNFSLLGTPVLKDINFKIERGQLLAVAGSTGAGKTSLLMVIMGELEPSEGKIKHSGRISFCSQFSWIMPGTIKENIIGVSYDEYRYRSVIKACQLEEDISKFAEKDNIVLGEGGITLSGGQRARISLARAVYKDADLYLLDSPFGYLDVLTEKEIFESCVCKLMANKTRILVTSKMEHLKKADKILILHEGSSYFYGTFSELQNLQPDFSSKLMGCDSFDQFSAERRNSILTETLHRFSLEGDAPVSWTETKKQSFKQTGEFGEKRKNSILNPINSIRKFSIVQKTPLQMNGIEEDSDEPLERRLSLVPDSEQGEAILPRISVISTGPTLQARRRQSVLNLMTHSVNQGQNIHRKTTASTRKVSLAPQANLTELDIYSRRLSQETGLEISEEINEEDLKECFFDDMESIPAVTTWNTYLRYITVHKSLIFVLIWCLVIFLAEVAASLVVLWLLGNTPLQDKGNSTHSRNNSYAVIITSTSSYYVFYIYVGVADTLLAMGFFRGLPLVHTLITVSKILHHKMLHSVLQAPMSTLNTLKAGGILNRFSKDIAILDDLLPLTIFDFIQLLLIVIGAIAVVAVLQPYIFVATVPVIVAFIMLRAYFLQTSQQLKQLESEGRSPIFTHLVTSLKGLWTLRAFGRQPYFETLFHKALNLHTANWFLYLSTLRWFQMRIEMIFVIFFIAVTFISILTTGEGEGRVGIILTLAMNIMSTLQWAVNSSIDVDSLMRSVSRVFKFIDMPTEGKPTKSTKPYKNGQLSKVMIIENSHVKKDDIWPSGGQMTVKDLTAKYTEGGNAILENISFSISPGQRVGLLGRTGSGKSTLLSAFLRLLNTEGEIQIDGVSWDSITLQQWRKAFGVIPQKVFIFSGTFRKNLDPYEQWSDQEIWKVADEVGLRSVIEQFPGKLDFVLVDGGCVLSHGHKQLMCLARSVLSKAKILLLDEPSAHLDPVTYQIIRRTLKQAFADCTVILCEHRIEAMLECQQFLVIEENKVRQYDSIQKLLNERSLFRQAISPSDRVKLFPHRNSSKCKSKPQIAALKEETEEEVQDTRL

Structure (SMILES) | surface display of ΔF508-CFTR (live cell-surface ELISA) | surface display of ΔF508-CFTR (live cell-surface ELISA) (listed as pyridostigmine)
CN(C)C(=O)Oc1cccc([N+](C)(C)C)c1 [Neostigmine, 3-{[(dimethylamino)carbonyl]oxy}-N,N,N-trimethylbenzenaminium] | increased | 
CN(C)C(=O)Oc1ccc[n+](C)c1 [Pyridostigmine] | rescues ΔF508-CFTR trafficking | increased
